# Reference: PMC7254530 (ACS Omega, 2020)
# Read-outs that look alike come from different tables or passages of the source.
# How the values were obtained:
# E. coli ZJ478 = assay type: in vivo, C57BL/6J male mice; settings: for survival rate: 120 h
# [1] = test system: E. coli ZJ487 (NDM-1/MCR-1); test: microbe, parasite or virus in culture; assay type: cell-based, Escherichia coli; settings: for MIC: Escherichia coli; for MIC of Mep combination: Mep with the named analogue at 32 μg/mL; for FIC Index: analogue + Mep; for MIC of analogues of OA combination: analogue with Mep
# [2] = test system: NDM-1-Asp199Ala, NDM-1-Thr201Ala, and NDM-1-Phe240Ala; assay type: biochemical
# MH-S cells = assay type: cell-based, mouse; settings: 6 h
# TEM-1 = TEM-1 (Escherichia coli, UniProt P62593); test: biochemical; settings: IC50, purified TEM-1
# TEM-1, sequence (P62593 24-286 limits assumed): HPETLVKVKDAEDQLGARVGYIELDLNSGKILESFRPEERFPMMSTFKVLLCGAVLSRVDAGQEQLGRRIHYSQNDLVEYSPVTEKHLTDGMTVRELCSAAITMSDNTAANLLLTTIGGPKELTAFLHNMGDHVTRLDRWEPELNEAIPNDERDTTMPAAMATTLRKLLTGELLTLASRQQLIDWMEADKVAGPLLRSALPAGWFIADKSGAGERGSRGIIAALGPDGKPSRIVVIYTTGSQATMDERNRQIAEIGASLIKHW
# A549 cells = assay type: cell-based, human; settings: 6 h
# S. aureus USA300 [3] = assay type: cell-based, Staphylococcus aureus; settings: OA combined with penicillin G
# S. aureus USA300 [4] = assay type: in vivo, C57BL/6J male mice; settings: for survival rate: 96 h; for activity of β-lactamases in bronchoalveolar lavage fluid: 36 h
# NDM-1 F240A = NDM-1 F240A (Klebsiella pneumoniae, UniProt C7C422, F240A); test: biochemical; assay type: binding
# [5] = test system: AmpC β-lactamase, E. coli BL21 (pET21a); assay type: biochemical; settings: co-culture or co-incubation with OA
# [6] = test system: E. coli BL21 (pET28a-SP-NDM-1); assay type: cell-based, Escherichia coli; settings: OA 32 μg/mL with Mep; postinoculation
# OXA-1 = OXA-1 (Escherichia coli, UniProt P13661); test: biochemical; parameters: species or system E. coli; settings: IC50, purified OXA-1
# OXA-1, sequence (P13661 26-276): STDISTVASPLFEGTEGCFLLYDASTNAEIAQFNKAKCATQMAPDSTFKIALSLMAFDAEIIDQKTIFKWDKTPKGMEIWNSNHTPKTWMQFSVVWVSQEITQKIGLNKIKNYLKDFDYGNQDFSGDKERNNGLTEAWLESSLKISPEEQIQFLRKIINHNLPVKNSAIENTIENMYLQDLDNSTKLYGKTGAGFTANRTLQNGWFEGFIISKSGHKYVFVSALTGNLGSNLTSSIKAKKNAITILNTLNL
# E. coli ZJ487 = assay type: cell-based, Escherichia coli; settings: OA 32 μg/mL with Mep; postinoculation
# suilysin (SLY) = suilysin (SLY) (Streptococcus suis, UniProt Q55996); test: biochemical
# NDM-1 = NDM-1 (Escherichia coli, UniProt E5KIY2); assay type: biochemical, E. coli; settings: OA analogues, Figure 3G
# [7] = named compound combined with Mep 5 mg/kg
# [8] = OA combined with penicillin G, 36 h postinfection
# [9] = monotherapy 50 mg/kg subcutaneous every 8 h
# [10] = read-out: MIC of analogues of OA alone, ZJ487, Table 1, median (range)
compound,measurement,setting,value
"C[C@@H](O)[C@H]1C(=O)N2C(C(=O)O)=C(S[C@@H]3CN[C@H](C(=O)N(C)C)C3)[C@H](C)[C@H]12 [Meropenem, meropenem, reference compound]",survival rate,"E. coli ZJ478; Mep 5 mg/kg alone, subcutaneous every 8 h",44.4%
same,MIC,"[1]; read-out: MIC of Mep alone, ZJ487, Table 1, median (range)",32 µg/mL
same,MIC of Mep alone,"[1]; ZJ487, Table 1, median (range), listed as Mep",16(16–32) μg/mL
"CC1(C)CC[C@]2(C(=O)O)CC[C@]3(C)C(=CC[C@@H]4[C@@]5(C)CC[C@H](O)C(C)(C)[C@@H]5CC[C@]43C)[C@@H]2C1 [OA, oleanolic acid]",inhibitory effect on activity of NDM-1 mutants,[2],significant inhibitory effect was not detected
same,concentration protecting cells from hemolysin-mediated cell injury,MH-S cells,1 to 4 µg/mL
same,E. coli colonization in the liver and spleen,"E. coli ZJ478; OA combined with Mep, 36 h postinfection",significantly inhibited
same,survival rate,E. coli ZJ478; [7],61.1%
same,IC50,TEM-1,> 109 µM
same,concentration protecting cells from hemolysin-mediated cell injury,A549 cells,1 to 4 µg/mL
same,bactericidal effect,S. aureus USA300 [3],"significantly eliminate, but not thoroughly kill"
same,survival rate,"S. aureus USA300 [4]; OA 50 mg/kg combined with penicillin G 50 mg/kg, subcutaneous every 8 h",75.0%
same,lung lesions,S. aureus USA300 [4]; OA combined with penicillin G,greatly alleviated
same,"IL-1β, IL-6, and TNF-α levels in bronchoalveolar lavage fluid",S. aureus USA300 [4]; [8],significant decreases
same,number of bacteria in the lungs,S. aureus USA300 [4]; [8],significant reduction
same,bacterial burden and inflammatory responses,S. aureus USA300 [4]; OA monotherapy,also inhibited
same,survival rate,S. aureus USA300 [4]; [9],43.8%
same,activity of β-lactamases in bronchoalveolar lavage fluid,S. aureus USA300 [4]; monotherapy,inhibited
same,activity of β-lactamases in bronchoalveolar lavage fluid,S. aureus USA300 [4]; penicillin G combined with OA,inhibited
same,Kd,NDM-1 F240A,14.3 µM
same,inhibitory effect on β-lactamase activity in culture supernatant,[5],No significant inhibitory effect
same,time to complete elimination,[6],≤ 6 h
same,IC50,OXA-1,> 109 µM
same,time to complete elimination,E. coli ZJ487,≤ 3 h
"CC1(C)S[C@@H]2[C@H](NC(=O)Cc3ccccc3)C(=O)N2[C@H]1C(=O)O [Penicillin G, penicillin G, reference compound]",survival rate,S. aureus USA300 [4]; [9],25.0%
same,activity of β-lactamases in bronchoalveolar lavage fluid,S. aureus USA300 [4]; monotherapy,such inhibition was not observed
CC1(C)CC[C@]2(C(=O)O)CC[C@]3(C)C(=CC[C@@H]4[C@@]5(C)C[C@@H](O)[C@H](O)[C@@](C)(CO)[C@@H]5CC[C@]43C)[C@@H]2C1 [arjunolic acid],MIC,[1]; [10],512 µg/mL
same,MIC of Mep combination,"[1]; ZJ487, median (range)",8(4–16) μg/mL
same,FIC Index,[1]; ZJ487,0.40 ± 0.14
same,MIC of analogues of OA combination,[1]; ZJ487,32 μg/mL
C[C@H]1[C@H](C)CC[C@]2(C(=O)O)CC[C@]3(C)C(=CC[C@@H]4[C@@]5(C)C[C@@H](O)[C@H](O)C(C)(C)[C@@H]5CC[C@]43C)[C@H]12 [corosolic acid],IC50,suilysin (SLY),< 2.12 µM
same,survival rate,E. coli ZJ478; [7],77.8%
same,inhibitory effect against NDM-1,NDM-1,robust inhibitory effects
same,MIC,[1]; [10],512 µg/mL
same,MIC of Mep combination,"[1]; ZJ487, median (range)",2(2–4) μg/mL
same,FIC Index,[1]; ZJ487,0.17 ± 0.04
same,MIC of analogues of OA combination,[1]; ZJ487,32 μg/mL
CC1(C)[C@@H](O[C@H]2O[C@H](C(=O)O)[C@@H](O)[C@H](O)[C@H]2O[C@@H]2O[C@H](C(=O)O)[C@@H](O)[C@H](O)[C@H]2O)CC[C@]2(C)[C@H]3C(=O)C=C4[C@@H]5C[C@@](C)(C(=O)O)CC[C@]5(C)CC[C@@]4(C)[C@]3(C)CC[C@@H]12 [glycyrrhizic acid],MIC,[1]; [10],512 µg/mL
same,MIC of Mep combination,"[1]; ZJ487, median (range)",8(4–16) μg/mL
same,FIC Index,[1]; ZJ487,0.40 ± 0.14
same,MIC of analogues of OA combination,[1]; ZJ487,32 μg/mL
CC1(C)CC[C@]2(C(=O)O)CC[C@]3(C)C(=CC[C@@H]4[C@@]5(C)C[C@@H](O)[C@H](O)C(C)(C)[C@@H]5CC[C@]43C)[C@@H]2C1 [maslinic acid],MIC,[1]; [10],512 µg/mL
same,MIC of Mep combination,"[1]; ZJ487, median (range)",4(2–4) μg/mL
same,FIC Index,[1]; ZJ487,0.38 ± 0.00
same,MIC of analogues of OA combination,[1]; ZJ487,32 μg/mL
C[C@H]1[C@H](C)CC[C@]2(C(=O)O)CC[C@]3(C)C(=CC[C@@H]4[C@@]5(C)CC[C@H](O)C(C)(C)[C@@H]5CC[C@]43C)[C@H]12 [ursolic acid],inhibitory effect against NDM-1,NDM-1,robust inhibitory effects
same,MIC,[1]; [10],512 µg/mL
same,MIC of Mep combination,"[1]; ZJ487, median (range)",2(2–4) μg/mL
same,FIC Index,[1]; ZJ487,0.17 ± 0.04
same,MIC of analogues of OA combination,[1]; ZJ487,32 μg/mL
α-boswellic acid,MIC of Mep combination,"[1]; ZJ487, median (range)",16(16) μg/mL
same,MIC of analogues of OA alone,"[1]; ZJ487, Table 1, median (range)",512(≥512) μg/mL
same,FIC Index,[1]; ZJ487,0.73 ± 0.29
same,MIC of analogues of OA combination,[1]; ZJ487,32 μg/mL
